Holding throughout (assay type): functional
For test [1], the system named is Acanthocheilonema viteae. Briefly: Antifilarial activity was measured by percent sterilization of A. viteae at dose 50 mg/kg/5days (i.p.); 0 represents inactive. The conditions noted are these: route intraperitoneal.
Test [2] has as its system Mastomys natalensis. The experiment in a line: Compound was evaluated in vivo for microfilaricidal activity against Acanthocheilonema viteae infection in Mastomys natalensis at dose 50 mg/kg/5days (i.p.); 0 represents inactive. As to conditions: route intraperitoneal.
The subject of test [3] is Mastomys natalensis. The experiment in a line: Compound was evaluated in vivo for microfilaricidal activity against Acanthocheilonema viteae infection in Mastomys natalensis at dose 350 mg/kg/5 days (i.p.). The conditions noted are these: route intraperitoneal.
Test [4] relates to Acanthocheilonema viteae. The experiment in a line: In vitro inhibition of Tubulin content in worms at concentration 1.0 uM.
The test system of test [5] is Acanthocheilonema viteae. The experiment in a line: In vitro inhibition of glucose uptake by Acanthocheilonema viteae at concentration 1.0 uM.
The subject of test [6] is Acanthocheilonema viteae. Briefly: In vitro increase in lactate production at concentration 1.0 uM.
In test [7] the test system is Acanthocheilonema viteae. The experiment in a line: Antifilarial activity was measured by percent sterilization of A. viteae at dose 50 mg/kg *5days (i.p.). As to conditions: route intraperitoneal.
Test [8] concerns Acanthocheilonema viteae. Briefly: In vitro inhibition of ATP content in worms at concentration 1.0 uM.
Test [9] relates to Mastomys natalensis. The experiment in a line: Compound was evaluated in vivo for microfilaricidal activity against Acanthocheilonema viteae infection in Mastomys natalensis; 0 represents inactive.
In test [10] the test system is Acanthocheilonema viteae. The experiment in a line: Antifilarial activity was measured by percent sterilization of A. viteae at dose 50 mg/kg *5days (i.p.); 0 represents inactive. The conditions noted are these: route intraperitoneal.
In test [11] the test system is Mastomys natalensis. Briefly: Compound was evaluated in vivo for microfilaricidal activity against Acanthocheilonema viteae infection in Mastomys natalensis at dose 50 mg/kg *5days (i.p.). As to conditions: route intraperitoneal.
Test [12] deals with Mastomys natalensis. The experiment in a line: Compound was evaluated in vivo for microfilaricidal activity against Acanthocheilonema viteae infection in Mastomys natalensis at dose 50 mg/kg/5days (i.p.). As to conditions: route intraperitoneal.
The test system of test [13] is Mastomys natalensis. The experiment in a line: Compound was evaluated in vivo for microfilaricidal activity against Acanthocheilonema viteae infection in Mastomys natalensis.

The values below come from ChEMBL document CHEMBL1150532, “Syntheses and antifilarial profile of 5-amino and 5,8-diamino-isoquinoline derivatives: A new class of antifilarial agents” (1996).

For `CCN(CC)C(=O)N1CCN(C)CC1.O=C(O)CC(O)(CC(=O)O)C(=O)O` [DIETHYLCARBAMAZINE CITRATE], the Sterility in the test on Acanthocheilonema viteae [1] turned out to be 0%. Further, the results for the Activity with Mastomys natalensis [2] and with Mastomys natalensis [3] were 0 and 90, respectively.

Turning to `OC1CC1Nc1cccc2cnccc12` (stereo unspecified), the Tubulin content with Acanthocheilonema viteae [4] was found to be 70.2 pmol/mg. In the test on Acanthocheilonema viteae [5], this compound registered a Glucose uptake of 6.67 µM/mg. Moreover, the Lactate production in the test on Acanthocheilonema viteae [6] turned out to be 7.42 µM/mg. In the test with Acanthocheilonema viteae [7], this compound came in with a Sterility of 31%. Moreover, the ATP content with Acanthocheilonema viteae [8] turned out to be 108 pmol/mg. The Activity in the test on Mastomys natalensis [2] and in the test with Mastomys natalensis [9] was 0 each time.

Turning to `O=[N+]([O-])c1ccc(N2CCOCC2)c2ccncc12`, the Tubulin content in the test with Acanthocheilonema viteae [4] stood at 38.5 pmol/mg. Besides, the Glucose uptake in the test on Acanthocheilonema viteae [5] was 6.15 µM/mg. The Lactate production in the test on Acanthocheilonema viteae [6] is 7.19 µM/mg. The compound further came in with a Sterility in the test on Acanthocheilonema viteae [10] of 0%. In addition, the ATP content in the test on Acanthocheilonema viteae [8] came out at 39.1 pmol/mg. Moreover, the values for the Activity in the test with Mastomys natalensis [9] and with Mastomys natalensis [11] were 0 and 81, respectively.

The compound `O=C1CN(c2cccc3cnccc23)C2CC2O1` (stereo unspecified) registered a Tubulin content with Acanthocheilonema viteae [4] of 35.4 pmol/mg. This compound returned a Glucose uptake with Acanthocheilonema viteae [5] of 6.09 µM/mg. In addition, the Lactate production with Acanthocheilonema viteae [6] was 6.42 µM/mg. In the test on Acanthocheilonema viteae [10], this compound gave a Sterility of 0%. In the test with Acanthocheilonema viteae [8], this compound returned an ATP content of 74.2 pmol/mg. The Activity with Mastomys natalensis [12] turned out to be 34; in the test with Mastomys natalensis [13], 0.

Consider `Clc1ccc2c(Nc3ccc(N4CCOCC4)c4ccncc34)ccnc2c1`, for which the Sterility with Acanthocheilonema viteae [1] worked out at 0%. Also, in the test with Acanthocheilonema viteae [4], the Tubulin content was 45.1 pmol/mg. The Glucose uptake in the test on Acanthocheilonema viteae [5] was 6.26 µM/mg. The Lactate production in the test on Acanthocheilonema viteae [6] came to 7.3 µM/mg. The ATP content in the test on Acanthocheilonema viteae [8] amounted to 37.9 pmol/mg. Further, the Activity in the test with Mastomys natalensis [12] worked out at 76; in the test on Mastomys natalensis [13], 60.
